Measured values from patent US6593365B1, “Diflunisal esters and related compounds” (The University of Queensland, priority 1997, dated 2003).
Read-outs that look alike come from different tables or passages of the source. Marks after values point to notes of the source that are not given here.

Experiments:
[1] = system: human platelet rich plasma; test: Platelet aggregation induced by arachidonic acid; format: cell-based; settings: compound 600 µM, 37° C., arachidonic acid 200 µM
How it was run: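 Citrated human PRP ([…]) preincubated with compound 3–45 min at 37 °C under stirring, then challenged with 200 µM arachidonic acid (final). Aggregation quantified as area under the turbidimetric curve; non-responding samples given 20 µM ADP to verify platelet viability.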

[2] = system: ischaemic/reperfusion rat livers; test: Ischaemic/reperfusion injury in rat livers (LDH release, bile production); design: species or system Female Sprague-Dawley rats; settings: for EC50: Rattus norvegicus
Procedure: Female Sprague-Dawley rats (220-250 g) were anaesthetised by interperitoneal injection of pentobarbital sodium (60 mg/kg, Boehringer Ingelhein). […] The bile duct was cannulated with a polyethylene tubing (PE-10, I.D. 0.28 mm; Clay Adams, New Jersey) and bile was collected into pre-weighed microcentrifuge tubes at 70 min intervals (in the middle of experiment and the end of experiment). The portal vein was then cannulated using a 16 G intravenous catheter and the liver was perfused via this cannula with 2% BSA Krebs-Henseleit bicarbonate buffer (pH 7.4) and oxygenated using a membrane oxygenator comprising of silastic tubing and ventilated with carbogen (95% O2/5% CO2). The perfusion system used was recirculating and employed a peristaltic pump (Cole-Parmer, Illinois).
Following a 10 min pre-ischaemia perfusion, the perfusion flow was stopped for 30 min at 37° C. with the liver being kept moist. At the end of this ischaemic phase, a known concentration of the aspirin analogue or diflunisal ester's solution (in 2% BSA Krebs-Henseleit buffer) was added into the perfusate prior to the perfusion being resumed for another 100 min. Outflow fractions were collected up to 140 min. A biochemistry autoanalyzer (Hitachi, model 747; Tokyo, Japan) was employed to determine the level of enzyme (LDH) release.
The degree of ischaemic/reperfusion injury was measured by calculating the area under the LDH release ([…]) versus time curve (AUC). […] The efficacy of each compound is expressed in terms of ED50 which represents the molar dose for 50% reduction of LDH release compared to the control. The comparison of bile production between the first stage of experiment (the first 70 min) and the second stage of experiment (the last 70 min) is also used as index of liver function during an experiment.

[3] = system: in-situ perfused rat liver; test: In-situ rat liver perfusions, hepatic availability (Example 2); format: in vitro ADME; settings: 30 mL/min, bolus
Procedure: The hepatic availability (Fhepatic) for the O-acyl esters of the salicylic acid and diflunisal was determined using a once through in-situ perfused rat liver preparation (Mellick et al, Unpublished Results).
Protein-free Krebs-Henseleit buffer was perfused at 30 mL/min for aspiring analogues and 2% BSA in Krebs-Henseleit buffer for diflunisal esters (since the solubilities of these latter compounds in protein-free media were very low (Hung et al, supra), 2% BSA were used to increase their solubilities). Briefly, 50 μL aliquots of a saturated solution of the particular O-acyl salicylic acid or diflunisal in Krebs-Henseleit buffer (or with 2% BSA) was injected into the liver with perfusate outflow samples collected via a fraction collector over three minutes. Aliquots (100 μL) from the outflow samples were assayed by HPLC to determine the residual concentration of presented ester and the quantity of phenolic metabolite (salicylic acid or diflunisal) issuing from the perfused liver. The HPLC assay was a modification of the method used by Mellick & Roberts 1996 (Mellick et al, 1996, unpublished results).
The hepatic availability (F) was determined from the outflow concentration versus time profiles for the esters using equation 1, with the assistance of the Moments Calculator 2.2 program for Macintosh computer developed by Robert Purves.
where Q is the perfusate flow rate and D is the dose of aspirin analogues or diflunisal esters administered. The area under the concentration-time curve (AUC) was estimated by the trapezoidal rule integration with appropriate modification for tail (Mellick et al, supra).

[4] = In vitro non-enzymatic hydrolysis in Krebs-Henseleit buffer; format: physicochemical; settings: for Hydrolysis rate constant (k): pH 7.4, 25° C., n=5; for half-life: pH 7.4, read-out: Half life (t1/2) (converted)
How it was run: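 Derivatives dissolved in Krebs-Henseleit buffer, pH 7.4, 25±1° C, with no protein or 2% w/v BSA; solutions sonicated and centrifuged, supernatant sampled over time. First-order hydrolysis rate constant k derived from ester concentration vs time, and half-life calculated from k.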

[5] = 2% BSA in Krebs-Henseleit buffer as perfusate
[6] = Krebs-Henseleit buffer 0% BSA, U = Undetectable
[7] = C is the ED50 molar dose, read-out: log 1/C (converted)
[8] = molar dose for 50% reduction of LDH release compared to control, 30 min ischaemia, 100 min reperfusion, read-out: ED50 (the source's name)
[9] = protein-free Krebs-Henseleit buffer as perfusate
[10] = bovine, Krebs-Henseleit buffer with 2% w/v BSA
[11] = protein-free Krebs-Henseleit buffer, Krebs-Henseleit buffer 0% BSA, first half life, t1/2=0.693/k, U = Undetectable

CC(=O)Oc1ccc(-c2ccc(F)cc2F)cc1C(=O)O [Compound C2D, acetyldiflunisal]
Platelet Aggregation (% of control) ([1]; preincubation 3 minutes): 92.3 ± 0.5 % of control
Platelet Aggregation (% of control) ([1]; preincubation 5 minutes): 67.3 ± 0.9 % of control
Platelet Aggregation (% of control) ([1]; preincubation 8 minutes): 27.9 ± 1.1 % of control
Platelet Aggregation (% of control) ([1]; preincubation 10 minutes): 0 % of control
Platelet Aggregation (% of control) ([1]; preincubation 12 minutes): 0 % of control
Platelet Aggregation (% of control) ([1]; preincubation 15 minutes): 0 % of control
Platelet Aggregation (% of control) ([1]; preincubation 20 minutes): 0 % of control
Platelet Aggregation (% of control) ([1]; preincubation 25 minutes): 0 % of control
Platelet Aggregation (% of control) ([1]; preincubation 45 minutes): 0 % of control
log 1/C ([2]; C is the ED50 molar dose): 4.61
Hepatic availability (F) [3, 5]: 0.21
Hydrolysis rate constant (k) [4, 6]: 0.0378 ± 0.0105 hour^1
Hydrolysis rate constant (k) ([4]; Krebs-Henseleit buffer 2% BSA): 0.0238 ± 0.0095 hour^1

CCCC(=O)Oc1ccc(-c2ccc(F)cc2F)cc1C(=O)O [Compound C4D, n-butanoyldiflunisal]
Platelet Aggregation (% of control) ([1]; preincubation 3 minutes): 96.1 ± 0.3 % of control
Platelet Aggregation (% of control) ([1]; preincubation 5 minutes): 90.3 ± 2.1 % of control
Platelet Aggregation (% of control) ([1]; preincubation 8 minutes): 73.9 ± 0.7 % of control
Platelet Aggregation (% of control) ([1]; preincubation 10 minutes): 57.3 ± 0.1 % of control
Platelet Aggregation (% of control) ([1]; preincubation 12 minutes): 31.8 ± 0.4 % of control
Platelet Aggregation (% of control) ([1]; preincubation 15 minutes): 0 % of control
Platelet Aggregation (% of control) ([1]; preincubation 20 minutes): 0 % of control
Platelet Aggregation (% of control) ([1]; preincubation 25 minutes): 0 % of control
Platelet Aggregation (% of control) ([1]; preincubation 45 minutes): 0 % of control
log 1/C ([2]; C is the ED50 molar dose): 4.67
Hepatic availability (F) [3, 5]: 0.34
Hydrolysis rate constant (k) ([4]; Krebs-Henseleit buffer 2% BSA): 0.0138 ± 0.0058 hour^1

CCCC(=O)Oc1ccccc1C(=O)O [Compound C4SA, n-butanoylsalicylic acid]
Platelet Aggregation (% of control) ([1]; preincubation 3 minutes): 29.5 ± 1.5^d % of control
Platelet Aggregation (% of control) ([1]; preincubation 5 minutes): 0 % of control
Platelet Aggregation (% of control) ([1]; preincubation 8 minutes): 0 % of control
Platelet Aggregation (% of control) ([1]; preincubation 10 minutes): 0 % of control
Platelet Aggregation (% of control) ([1]; preincubation 12 minutes): 0 % of control
Platelet Aggregation (% of control) ([1]; preincubation 15 minutes): 0 % of control
Platelet Aggregation (% of control) ([1]; preincubation 20 minutes): 0 % of control
Platelet Aggregation (% of control) ([1]; preincubation 25 minutes): 0 % of control
Platelet Aggregation (% of control) ([1]; preincubation 45 minutes): 0 % of control
EC50 [2, 7]: 49 µM
EC50 [2, 8]: 48.8 µM
Hepatic availability (F) [3, 9]: 0.40
Hydrolysis rate constant (k) [4, 6]: 0.0049 ± 0.0037 hour^1
Hydrolysis rate constant (k) ([4]; Krebs-Henseleit buffer 2% BSA): 0.0031 ± 0.0015 hour^1
half-life [4, 10]: 224 h
half-life [4, 11]: 141 h

CCCCC(=O)Oc1ccc(-c2ccc(F)cc2F)cc1C(=O)O [Compound C5D, n-pentanoyldiflunisal]
Platelet Aggregation (% of control) ([1]; preincubation 3 minutes): 97.1 ± 0.1 % of control
Platelet Aggregation (% of control) ([1]; preincubation 5 minutes): 95.3 ± 0.7 % of control
Platelet Aggregation (% of control) ([1]; preincubation 8 minutes): 90.6 ± 0.9 % of control
Platelet Aggregation (% of control) ([1]; preincubation 10 minutes): 87.3 ± 3.1 % of control
Platelet Aggregation (% of control) ([1]; preincubation 12 minutes): 75.9 ± 0.1 % of control
Platelet Aggregation (% of control) ([1]; preincubation 15 minutes): 57.5 ± 1.7 % of control
Platelet Aggregation (% of control) ([1]; preincubation 20 minutes): 0 % of control
Platelet Aggregation (% of control) ([1]; preincubation 25 minutes): 0 % of control
Platelet Aggregation (% of control) ([1]; preincubation 45 minutes): 0 % of control
log 1/C ([2]; C is the ED50 molar dose): 4.77
Hepatic availability (F) [3, 5]: 0.38
Hydrolysis rate constant (k) ([4]; Krebs-Henseleit buffer 2% BSA): 0.0113 ± 0.0037 hour^1

CCCCC(=O)Oc1ccccc1C(=O)O [Compound C5SA, n-pentanoylsalicylic acid]
Platelet Aggregation (% of control) ([1]; preincubation 3 minutes): 63.5 ± 1.5 % of control
Platelet Aggregation (% of control) ([1]; preincubation 5 minutes): 41.3 ± 1.1 % of control
Platelet Aggregation (% of control) ([1]; preincubation 8 minutes): 0 % of control
Platelet Aggregation (% of control) ([1]; preincubation 10 minutes): 0 % of control
Platelet Aggregation (% of control) ([1]; preincubation 12 minutes): 0 % of control
Platelet Aggregation (% of control) ([1]; preincubation 15 minutes): 0 % of control
Platelet Aggregation (% of control) ([1]; preincubation 20 minutes): 0 % of control
Platelet Aggregation (% of control) ([1]; preincubation 25 minutes): 0 % of control
Platelet Aggregation (% of control) ([1]; preincubation 45 minutes): 0 % of control
EC50 [2, 7]: 34.7 µM
EC50 [2, 8]: 34.6 µM
Hepatic availability (F) [3, 9]: 0.26
Hydrolysis rate constant (k) [4, 6]: 0.0061 ± 0.0027 hour^1
Hydrolysis rate constant (k) ([4]; Krebs-Henseleit buffer 2% BSA): 0.0028 ± 0.0013 hour^1
half-life [4, 10]: 248 h
half-life [4, 11]: 114 h

CCCCCC(=O)Oc1ccc(-c2ccc(F)cc2F)cc1C(=O)O [Compound C6D, n-hexanoyldiflunisal]
Platelet Aggregation (% of control) ([1]; preincubation 3 minutes): 97.2 ± 0.2 % of control
Platelet Aggregation (% of control) ([1]; preincubation 5 minutes): 94.7 ± 0.3 % of control
Platelet Aggregation (% of control) ([1]; preincubation 8 minutes): 93.3 ± 0.2 % of control
Platelet Aggregation (% of control) ([1]; preincubation 10 minutes): 90.1 ± 2.1 % of control
Platelet Aggregation (% of control) ([1]; preincubation 12 minutes): 89.3 ± 0.1 % of control
Platelet Aggregation (% of control) ([1]; preincubation 15 minutes): 71.7 ± 1.9 % of control
Platelet Aggregation (% of control) ([1]; preincubation 20 minutes): 45.6 ± 0.5 % of control
Platelet Aggregation (% of control) ([1]; preincubation 25 minutes): 0 % of control
Platelet Aggregation (% of control) ([1]; preincubation 45 minutes): 0 % of control
log 1/C ([2]; C is the ED50 molar dose): 4.68
Hepatic availability (F) [3, 5]: 0.38
Hydrolysis rate constant (k) ([4]; Krebs-Henseleit buffer 2% BSA): 0.0056 ± 0.0042 hour^1

CCCCCC(=O)Oc1ccccc1C(=O)O [Compound C6SA, n-hexanoylsalicylic acid]
Platelet Aggregation (% of control) ([1]; preincubation 3 minutes): 90.1 ± 2.2 % of control
Platelet Aggregation (% of control) ([1]; preincubation 5 minutes): 70.5 ± 3.1 % of control
Platelet Aggregation (% of control) ([1]; preincubation 8 minutes): 39.9 ± 1.1 % of control
Platelet Aggregation (% of control) ([1]; preincubation 10 minutes): 0 % of control
Platelet Aggregation (% of control) ([1]; preincubation 12 minutes): 0 % of control
Platelet Aggregation (% of control) ([1]; preincubation 15 minutes): 0 % of control
Platelet Aggregation (% of control) ([1]; preincubation 20 minutes): 0 % of control
Platelet Aggregation (% of control) ([1]; preincubation 25 minutes): 0 % of control
Platelet Aggregation (% of control) ([1]; preincubation 45 minutes): 0 % of control
EC50 [2, 7]: 28.8 µM
EC50 [2, 8]: 29.1 µM
Hepatic availability (F) [3, 9]: 0.02
Hydrolysis rate constant (k) [4, 6]: 0.0059 ± 0.0023 hour^1
Hydrolysis rate constant (k) ([4]; Krebs-Henseleit buffer 2% BSA): 0.0021 ± 0.0017 hour^1
half-life [4, 10]: 330 h
half-life [4, 11]: 117 h

O=C(O)c1cc(-c2ccc(F)cc2F)ccc1O [DF, 2′,4′-difluoro-4-hydroxy-3-biphenylcarboxylic acid, reference compound]
EC50 [2, 7]: 25.1 µM
EC50 [2, 8]: 25.2 µM

O-acetylsalicylic acid [Compound C2SA, reference compound]
Platelet Aggregation (% of control) ([1]; preincubation 3 minutes): 0 % of control
Platelet Aggregation (% of control) ([1]; preincubation 5 minutes): 0 % of control
Platelet Aggregation (% of control) ([1]; preincubation 8 minutes): 0 % of control
Platelet Aggregation (% of control) ([1]; preincubation 10 minutes): 0 % of control
Platelet Aggregation (% of control) ([1]; preincubation 12 minutes): 0 % of control
Platelet Aggregation (% of control) ([1]; preincubation 15 minutes): 0 % of control
Platelet Aggregation (% of control) ([1]; preincubation 20 minutes): 0 % of control
Platelet Aggregation (% of control) ([1]; preincubation 25 minutes): 0 % of control
Platelet Aggregation (% of control) ([1]; preincubation 45 minutes): 0 % of control
Hepatic availability (F) [3, 9]: 0.85
